Experimental data as given in patent US8710065B2, “Tricyclic inhibitors of kinases” (AbbVie Inc., priority 2011, dated 2014).

target: T1, GST-tagged-Wee1 kinase (Homo sapiens, UniProt P30291); experiment: Wee1 time-resolved fluorescence equilibrium binding assay (displacement of Oregon Green-labeled ATP-competitive kinase probe); conditions: read-out: Wee-1 inhibition (Ki)
T1 construct: purchased Carnabio (Carna Biosciences) 05-177
Procedure, shortened: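 Time-resolved fluorescence equilibrium binding with GST-Wee1, measuring displacement of a rapidly reversible Oregon Green-labelled ATP-competitive probe by competitive inhibitors; values reported as Ki.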

T1 sequence (P30291 whole entry): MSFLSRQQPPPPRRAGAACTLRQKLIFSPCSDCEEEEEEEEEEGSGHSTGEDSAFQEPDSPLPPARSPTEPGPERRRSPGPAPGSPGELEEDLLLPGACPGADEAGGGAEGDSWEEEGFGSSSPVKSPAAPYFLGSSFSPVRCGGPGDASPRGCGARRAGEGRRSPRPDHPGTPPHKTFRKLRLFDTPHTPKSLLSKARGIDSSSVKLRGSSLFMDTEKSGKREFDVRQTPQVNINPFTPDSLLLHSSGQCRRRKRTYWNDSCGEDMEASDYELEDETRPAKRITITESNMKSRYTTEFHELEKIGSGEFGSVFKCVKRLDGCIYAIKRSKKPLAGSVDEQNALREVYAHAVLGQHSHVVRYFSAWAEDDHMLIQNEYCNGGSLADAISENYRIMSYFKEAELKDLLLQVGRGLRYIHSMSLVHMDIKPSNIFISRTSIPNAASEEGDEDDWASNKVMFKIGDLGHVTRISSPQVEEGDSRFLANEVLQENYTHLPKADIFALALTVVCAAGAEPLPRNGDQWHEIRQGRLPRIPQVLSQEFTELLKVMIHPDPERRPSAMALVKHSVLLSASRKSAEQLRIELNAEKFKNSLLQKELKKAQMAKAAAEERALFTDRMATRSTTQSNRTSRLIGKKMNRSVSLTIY

CN1CCN(Cc2ccc(Nc3ncc4c(=O)n(-c5c(Cl)cccc5Cl)c5nccn5c4n3)cc2)CC1 [Example 127, 6-(2,6-dichlorophenyl)-2-({4-[(4-methylpiperazin-1-yl)methyl]phenyl}amino)imidazo[1,2-a]pyrimido[5,4-e]pyrimidin-5(6H)-one] and CN1CCN(c2ccc(Nc3ncc4c(=O)n(-c5c(Cl)cccc5Cl)c5nccn5c4n3)cc2Cl)CC1 [Example 136, 2-{[3-chloro-4-(4-methylpiperazin-1-yl)phenyl]amino}-6-(2,6-dichlorophenyl)imidazo[1,2-a]pyrimido[5,4-e]pyrimidin-5(6H)-one] cannot be ordered by Ki: less than 10 nM for the first, less than 10 nM for the second.

C[C@@H]1CN(c2ccc(Nc3ncc4c(=O)n(-c5c(Cl)cccc5Cl)c5nccn5c4n3)cc2F)C[C@H](C)N1 [Example 128, 6-(2,6-dichlorophenyl)-2-({4-[(3R,5S)-3,5-dimethylpiperazin-1-yl]-3-fluorophenyl}amino)imidazo[1,2-a]pyrimido[5,4-e]pyrimidin-5(6H)-one] and COc1cc(Nc2ncc3c(=O)n(-c4c(Cl)cccc4Cl)c4nccn4c3n2)ccc1N1CCN(C)CC1 [Example 148, 6-(2,6-dichlorophenyl)-2-{[3-methoxy-4-(4-methylpiperazin-1-yl)phenyl]amino}imidazo[1,2-a]pyrimido[5,4-e]pyrimidin-5(6H)-one] cannot be ordered by Ki: less than 10 nM for the first, less than 10 nM for the second.

O=c1c2cnc(Nc3cc(F)c(N4CCNCC4)c(F)c3)nc2n2ccnc2n1-c1c(Cl)cccc1Cl [Example 129, 6-(2,6-dichlorophenyl)-2-{[3,5-difluoro-4-(piperazin-1-yl)phenyl]amino}imidazo[1,2-a]pyrimido[5,4-e]pyrimidin-5(6H)-one] and Cc1cc(Nc2ncc3c(=O)n(-c4c(F)cccc4Cl)c4nccn4c3n2)ccc1N1CCCNCC1 [Example 141, 6-(2-chloro-6-fluorophenyl)-2-{[4-(1,4-diazepan-1-yl)-3-methylphenyl]amino}imidazo[1,2-a]pyrimido[5,4-e]pyrimidin-5(6H)-one] cannot be ordered by Ki: less than 10 nM for the first, less than 10 nM for the second.

CC1(C)CN(CC2CC2)Cc2cc(Nc3ncc4c(=O)n(-c5ccccc5Cl)c5nccn5c4n3)ccc21 [Example 130, 6-(2-chlorophenyl)-2-{[2-(cyclopropylmethyl)-4,4-dimethyl-1,2,3,4-tetrahydroisoquinolin-7-yl]amino}imidazo[1,2-a]pyrimido[5,4-e]pyrimidin-5(6H)-one] and CC(C)N1Cc2cc(Nc3ncc4c(=O)n(-c5ccccc5Cl)c5nccn5c4n3)ccc2C(C)(C)C1 [Example 144, 6-(2-chlorophenyl)-2-{[4,4-dimethyl-2-(propan-2-yl)-1,2,3,4-tetrahydroisoquinolin-7-yl]amino}imidazo[1,2-a]pyrimido[5,4-e]pyrimidin-5(6H)-one] cannot be ordered by Ki: less than 10 nM for the first, less than 10 nM for the second.

CC1(C)CN(Cc2cccnc2)Cc2cc(Nc3ncc4c(=O)n(-c5ccccc5Cl)c5nccn5c4n3)ccc21 [Example 131, 6-(2-chlorophenyl)-2-{[4,4-dimethyl-2-(pyridin-3-ylmethyl)-1,2,3,4-tetrahydroisoquinolin-7-yl]amino}imidazo[1,2-a]pyrimido[5,4-e]pyrimidin-5(6H)-one] and CC1(C)CN(Cc2ccsc2)Cc2cc(Nc3ncc4c(=O)n(-c5ccccc5Cl)c5nccn5c4n3)ccc21 [Example 132, 6-(2-chlorophenyl)-2-{[4,4-dimethyl-2-(thiophen-3-ylmethyl)-1,2,3,4-tetrahydroisoquinolin-7-yl]amino}imidazo[1,2-a]pyrimido[5,4-e]pyrimidin-5(6H)-one] cannot be ordered by Ki: less than 10 nM for the first, less than 10 nM for the second.

CN1CCc2cc(Nc3ncc4c(=O)n(-c5ccccc5Cl)c5nccn5c4n3)ccc2C1(C)C [Example 133, 6-(2-chlorophenyl)-2-[(1,1,2-trimethyl-1,2,3,4-tetrahydroisoquinolin-6-yl)amino]imidazo[1,2-a]pyrimido[5,4-e]pyrimidin-5(6H)-one] and CN1Cc2cc(Nc3ncc4c(=O)n(-c5ccccc5Cl)c5nccn5c4n3)ccc2C1(C)C [Example 146, 6-(2-chlorophenyl)-2-[(1,1,2-trimethyl-2,3-dihydro-1H-isoindol-5-yl)amino]imidazo[1,2-a]pyrimido[5,4-e]pyrimidin-5(6H)-one] cannot be ordered by Ki: less than 10 nM for the first, less than 10 nM for the second.

O=c1c2cnc(Nc3ccc(C4CCCN4)cc3)nc2n2ccnc2n1-c1c(Cl)cccc1Cl (stereo not shown) [Example 134, 6-(2,6-dichlorophenyl)-2-{[4-(pyrrolidin-2-yl)phenyl]amino}imidazo[1,2-a]pyrimido[5,4-e]pyrimidin-5(6H)-one] and O=c1c2cnc(Nc3ccc(C4CCCCN4)cc3)nc2n2ccnc2n1-c1c(Cl)cccc1Cl (stereo not shown) [Example 135, 6-(2,6-dichlorophenyl)-2-{[4-(piperidin-2-yl)phenyl]amino}imidazo[1,2-a]pyrimido[5,4-e]pyrimidin-5(6H)-one] cannot be ordered by Ki: less than 10 nM for the first, less than 10 nM for the second.

COc1cc(Nc2ncc3c(=O)n(-c4c(Cl)cccc4Cl)c4nccn4c3n2)ccc1N1CCN(C(C)C)CC1 [Example 137, 6-(2,6-dichlorophenyl)-2-({3-methoxy-4-[4-(propan-2-yl)piperazin-1-yl]phenyl}amino)imidazo[1,2-a]pyrimido[5,4-e]pyrimidin-5(6H)-one] and O=C1CN(c2ccc(Nc3ncc4c(=O)n(-c5c(Cl)cccc5Cl)c5nccn5c4n3)cc2)CCN1 [Example 143, 6-(2,6-dichlorophenyl)-2-{[4-(3-oxopiperazin-1-yl)phenyl]amino}imidazo[1,2-a]pyrimido[5,4-e]pyrimidin-5(6H)-one] cannot be ordered by Ki: less than 10 nM for the first, less than 10 nM for the second.

O=c1c2cnc(Nc3ccc(N4CCC(O)CC4)cc3)nc2n2ccnc2n1-c1ccccc1Cl [Example 138, 6-(2-chlorophenyl)-2-{[4-(4-hydroxypiperidin-1-yl)phenyl]amino}imidazo[1,2-a]pyrimido[5,4-e]pyrimidin-5(6H)-one] and CN1C(C)(C)c2ccc(Nc3ncc4c(=O)n(-c5ccccc5Cl)c5nccn5c4n3)cc2C1(C)C [Example 147, 6-(2-chlorophenyl)-2-[(1,1,2,3,3-pentamethyl-2,3-dihydro-1H-isoindol-5-yl)amino]imidazo[1,2-a]pyrimido[5,4-e]pyrimidin-5(6H)-one] cannot be ordered by Ki: less than 10 nM for the first, less than 10 nM for the second.

CN(C)C1Cc2ccc(Nc3ncc4c(=O)n(-c5c(F)cccc5Cl)c5nccn5c4n3)cc2C1 (stereo not shown) [Example 139, 6-(2-chloro-6-fluorophenyl)-2-{[2-(dimethylamino)-2,3-dihydro-1H-inden-5-yl]amino}imidazo[1,2-a]pyrimido[5,4-e]pyrimidin-5(6H)-one] and CN1Cc2cc(Nc3ncc4c(=O)n(-c5c(F)cccc5Cl)c5nccn5c4n3)ccc2C2(CC2)C1 [Example 140, 6-(2-chloro-6-fluorophenyl)-2-[(2′-methyl-2′,3′-dihydro-1′H-spiro[cyclopropane-1,4′-isoquinolin]-7′-yl)amino]imidazo[1,2-a]pyrimido[5,4-e]pyrimidin-5(6H)-one] cannot be ordered by Ki: less than 10 nM for the first, less than 10 nM for the second.

Compared with CC(C)n1c(=O)c2cnc(Nc3ccc4c(c3)CN(C)CC43CC3)nc2n2ccnc12 [Example 142, 2-[(2′-methyl-2′,3′-dihydro-1′H-spiro[cyclopropane-1,4′-isoquinolin]-7′-yl)amino]-6-(propan-2-yl)imidazo[1,2-a]pyrimido[5,4-e]pyrimidin-5(6H)-one], CC1(C)CN(CCCC(F)(F)F)Cc2cc(Nc3ncc4c(=O)n(-c5ccccc5Cl)c5nccn5c4n3)ccc21 [Example 145, 6-(2-chlorophenyl)-2-{[4,4-dimethyl-2-(4,4,4-trifluorobutyl)-1,2,3,4-tetrahydroisoquinolin-7-yl]amino}imidazo[1,2-a]pyrimido[5,4-e]pyrimidin-5(6H)-one] is lower in Ki: 10 to 100 nM for the first, less than 10 nM for the second. The second binds more tightly here.
